Measurements taken from patent publication US20180163250A1, “Screening Broths Comprising Esculatin Compounds for the Detection of Specific Microorganisms” (Neogen Corporation, priority 2016, published 2018).

Tests used:
[1] = test system: methicillin resistant staphylococcus aureus; assay: CHE-phosphate in MRSA broth before and after FAC: MRSA strains; format: cell-based; conditions: for Broth color after addition of FAC: 5 minutes at ambient temperature after FAC; for Broth color before addition FAC: LAB588, 37° C. for 22 hours
Excerpt: (§1) Scheme 2 above provides a pictorial representation of CHE-phosphate discriminating between methicillin resistant staphylococcus aureus and methicillin resistant coagulase negative Staphylococcus. The single phosphate group from CHE-phosphate is removed by the phosphatase activity of methicillin resistant staphylococcus aureus, but not by the coagulase negative staphylococcus, which lack this phosphatase activity. Addition of ferric ammonium citrate produces the dark, insoluble iron-3,4-cyclohexenoesculatin complex indicating the presence of methicillin resistant staphylococcus aureus. The dark complex is not formed between ferric ammonium citrate and CHE-phosphate, and therefore indicates the absence of phosphatase activity. Accordingly, a lack of a dark precipitate indicates the absence of methicillin resistant staphylococcus aureus.
(§2) A panel of MRSA strains and coagulase negative staphylococci (clinical isolates) were cultured and tested in MRSA broth with CHE-phosphate using the same methodology as Example 2 CHE-phosphate was Dissolved at 200 mg/ml in 50:50 mixture of dimethylformamide and water. LAB588 (MRSA broth, Lab M limited) pre-dispensed to 10 ml volumes was supplemented with 25 μL aliquots from the prepared stock solution. A 0.5 Macfarlane standard suspension of methicillin resistant staphylococcus aureus and coagulase negative staphylococci strains were prepared from 18-24 h cultures grown in tryptic soy broth (LAB004, Lab M Limited) at 37° C. These were diluted to an amount sufficient to inoculate each sample with 100-1000 cfu. Samples were then incubated at 37° C. for 22 hours and observed for growth and color change. 50 μL aliquots of a 250 mg/ml stock solution of Ferric ammonium citrate (FAC) was then added to each sample and allowed to incubate at ambient temperature for 5 minutes. The samples were then observed for blackening indicating phosphatase activity by the presence of free 3,4-cyclohexenoesculatin (Table 3).

[2] = test system: methicillin resistant staphylococcus aureus strains; assay: Growth and initial color change in MRSA screening broth (LAB588) containing the substrate; format: cell-based; conditions: for Initial color change indicating the presence of MRSA: LAB588 broth with cefoxitin, 100-1000 cfu
Experimental: (§3) CHE-phosphate, and 3,4-cyclohexenoesculatin diphosphate were dissolved at 200 mg/ml in a 50:50 mixture of dimethylformamide and water. 5-bromo-4-chloroindoxyl phosphate was dissolved at 200 mg/ml in a 50:50 mixture of ethanol and water. The mixtures of compounds were added individually to a MRSA broth (LAB588; Lab M limited) pre-dispensed to 10 ml volumes, after supplementation with cefoxitin selective agent, as 25 μL additions from the prepared stock solutions.
(§4) A 0.5 Macfarlane standard suspension of methicillin resistant staphylococcus aureus strains were prepared from 18-24 h cultures grown in tryptic soy broth (LAB004; Lab M Limited) at 37° C. These were diluted and added to the MRSA broth samples in an amount sufficient to inoculate each sample with 100-1000 colony forming units (cfu). Target concentration was achieved by diluting a culture to a target level and inoculating sets of tubes at different inoculum dilutions so as to achieve the target range. The actual quantity inoculated was confirmed by plating 50 μl of the dilution onto Tryptone soy agar (LAB011) and incubating the plates for 18-24 h at 37° C. and counting the resulting colonies. This information was used to determine which tubes had been inoculated within the target dosing range.
(§5) The broth is designed to selectively indicate a positive presence of MRSA by a yellow color, or a presumptive positive presence of MRSA by an orange color (Table 1). To the CHE-phosphate and 3,4-cyclohexenoesculatin diphosphate was added 50 μL of a 250/mg/ml stock solution of Ferric ammonium citrate and samples were allowed to incubate at ambient temperature for 5 minutes.

[3] = test system: methicillin resistant coagulase negative staphylococcus (clinical isolates); assay: CHE-phosphate in MRSA broth before and after FAC: coagulase negative staphylococci; format: cell-based; conditions: for Broth color after addition of FAC: 5 minutes at ambient temperature after FAC; for Broth color before addition FAC: LAB588, 37° C. for 22 hours
Excerpt: as §1, §2

[4] = test system: MRSA phosphatase activity; assay: Confirmatory enzymatic test for MRSA phosphatase activity in the MRSA screening broth (initial investigation); format: cell-based, staphylococcus aureus; conditions: substrate and ferric ammonium citrate added at end of incubation, or substrate included before incubation
Excerpt: MRSA detection broths based on the principle of mannitol and trehalose utilization and cefoxitin were designed to be a selective system for high throughput screening of clinical MRSA samples. The broths allow high volume screening of the majority of patient samples by a low cost method with confirmation of the few presumptive positive samples by rapid methods. The broths achieved good performance relative to Mannitol salts broth enrichment and/or direct plating (>98% sensitivity and >96 selectivity). In order to further enhance the selectivity of this broth system, the use of a confirmatory enzymatic test targeted at the MRSA phosphatase activity was investigated. […] Fluorogenic phosphatase substrate, although giving a confirming reaction, suffered from the disadvantage of nonspecific fluorescence in the broth probably due to compound stability, and also necessitated the use of non-auto fluorescent glass or plastic tubes. […]

[5] = test system: phosphatase activity of methicillin resistant staphylococcus aureus; assay: Blackening after addition of ferric ammonium citrate (free CHE, phosphatase activity) in MRSA broth; format: cell-based; conditions: for blackening after the addition of ferric ammonium citrate indicating the presence of free 3,4-cyclohexenoesculatin: 5 minutes at ambient temperature after FAC
Experimental: as §3, §4, §5

**Q.** Which results are given for `O=c1oc2cc(O)c(OP(=O)(O)O)cc2c2c1CCCC2` [CHE-phosphate, sodium 3,4-cyclohexenoesculatin-6-phosphate (sodium 3-hydroxy-6-oxo-7,8,9,10-tetrahydro-6H-benzo[c]chromen-2-yl phosphate)]?
**A.** Broth color after addition of FAC ([1]; MRSA 3): Black; Broth color before addition FAC ([1]; MRSA 3): Yellow; Broth color after addition of FAC ([1]; MRSA 15): Black; Broth color before addition FAC ([1]; MRSA 15): Yellow; Broth color after addition of FAC ([1]; MRSA 16A): Black; Broth color before addition FAC ([1]; MRSA 16A): Orange; Broth color after addition of FAC ([1]; MRSA 16B): Black; Broth color before addition FAC ([1]; MRSA 16B): Orange; Broth color after addition of FAC ([1]; MRSA 75): Black; Broth color before addition FAC ([1]; MRSA 75): Orange; Broth color after addition of FAC ([1]; S. aureus NCTC 12493): Black; Broth color before addition FAC ([1]; S. aureus NCTC 12493): Yellow; Specificity for the phosphatase enzyme of MRSA versus methicillin resistant coagulase negative staphylococci ([1]; summary of Table 3): specific for the phosphatase enzyme of MRSA; Initial color change indicating the presence of MRSA ([2]; MRSA 3): Growth (yellow); Initial color change indicating the presence of MRSA ([2]; MRSA 15): Growth (yellow); Initial color change indicating the presence of MRSA ([2]; MRSA 15A (clinical isolate)): Growth (yellow); Initial color change indicating the presence of MRSA ([2]; MRSA 15B (clinical isolate)): Growth (yellow); Initial color change indicating the presence of MRSA ([2]; MRSA 15C (clinical isolate)): Growth (orange); Initial color change indicating the presence of MRSA ([2]; MRSA 16A (clinical isolate)): Growth (orange); Initial color change indicating the presence of MRSA ([2]; MRSA 16B (clinical isolate)): Growth (orange); Initial color change indicating the presence of MRSA ([2]; MRSA 16C (clinical isolate)): Growth (orange); Inhibition of the growth of MRSA ([2]; MRSA broth LAB588, summary of Table 1): not inhibitory; Initial color change indicating the presence of MRSA ([2]; S. aureus NCTC 12493): Growth (yellow); Broth color after addition of FAC ([3]; CNS 22): Orange; Broth color before addition FAC ([3]; CNS 22): Orange; Broth color after addition of FAC ([3]; CNS 28): yellow; Broth color before addition FAC ([3]; CNS 28): yellow; Broth color after addition of FAC ([3]; CNS 33): orange; Broth color before addition FAC ([3]; CNS 33): orange; Blackening reaction in the MRSA screening broth [4]: readily observable blackening reaction; blackening after the addition of ferric ammonium citrate indicating the presence of free 3,4-cyclohexenoesculatin ([5]; MRSA 3): Blackening; blackening after the addition of ferric ammonium citrate indicating the presence of free 3,4-cyclohexenoesculatin ([5]; MRSA 15): Blackening; blackening after the addition of ferric ammonium citrate indicating the presence of free 3,4-cyclohexenoesculatin ([5]; MRSA 15A (clinical isolate)): Blackening; blackening after the addition of ferric ammonium citrate indicating the presence of free 3,4-cyclohexenoesculatin ([5]; MRSA 15B (clinical isolate)): Blackening; blackening after the addition of ferric ammonium citrate indicating the presence of free 3,4-cyclohexenoesculatin ([5]; MRSA 15 C (clinical isolate)): Blackening; blackening after the addition of ferric ammonium citrate indicating the presence of free 3,4-cyclohexenoesculatin ([5]; MRSA 16A (clinical isolate)): Blackening; blackening after the addition of ferric ammonium citrate indicating the presence of free 3,4-cyclohexenoesculatin ([5]; MRSA 16B (clinical isolate)): Blackening; blackening after the addition of ferric ammonium citrate indicating the presence of free 3,4-cyclohexenoesculatin ([5]; MRSA 16 C (clinical isolate)): Blackening; blackening after the addition of ferric ammonium citrate indicating the presence of free 3,4-cyclohexenoesculatin ([5]; S. aureus NCTC 12493): Blackening; Specificity of enzymatic phosphatase activity for the substrate ([5]; summary of Table 2): specific
